Measured values from US20120309798A1, “Tumour Treatment Agents and Method” (Vivolux AB, priority 2009, published 2012).
Read-outs that look alike come from different tables or passages of the source.

Assays:
[1] = test system: cells from CLL and normal PBMC; assay: Tumor cell specificity: drug effect in CLL cells versus normal PBMC, FMCA; assay type: cell-based, human; conditions: PBMC n=4, CLL n=9; FIG. 2c
Excerpt: (§1) Cell culture. Patient tumor samples (98) and preparations (4) of normal peripheral blood mononuclear cells (PBMC), detailed in Table 1, were used to determine the activity of VLX50 and, for comparison, six other cytotoxic drugs chosen to represent different mechanistic classes.
(§2) The tumor samples were obtained by bone marrow/peripheral blood sampling, routine surgery or diagnostic biopsy. Leukemic cells and PBMCs were isolated by 1.077 g ml-1 Ficoll-Paque centrifugation (Larsson et al., 1992). Tumor tissue from solid tumor samples was minced into small pieces and tumor cells were isolated by collagenase dispersion followed by Percoll density gradient centrifugation (Csoka et al., 1994). The sampling of primary tumor cells was approved by the local ethics committee at Uppsala University Hospital. Cell viability was determined by trypan blue exclusion test and the proportion of tumor cells in the preparation was judged by inspection of May-Grunvald-Giemsa stained cytospin slides (FIG. 1a). All samples used in this study contained more than 70% tumor cells.
Fluorometric Microculture Cytotoxicity Assay. The Fluorometric Microculture Cytotoxicity Assay, FMCA, described in detail previously (Lindhagen et al., 2008), is based on measurement of fluorescence generated from hydrolysis of fluorescein diacetate (FDA) to fluorescein by cells with intact plasma membranes. Cells were seeded in the drug-prepared 384-well plates using the pipetting robot Precision 2000 (Bio-Tek Instruments Inc., Winooski, Vt.). The number of cells per well were 2500-5000. Two columns without drugs served as controls and one column with medium only served as blank. The plates were incubated for 72 h and then transferred to an integrated HTS SAIGAN Core System consisting of an ORCA robot (Beckman Coulter) with CO2 incubator (Cytomat 2C, Kendro, Sollentuna, Sweden), dispensor module (Multidrop 384, Titertek, Huntsville, Ala.), washer module (ELx 405, Bio-Tek Instruments Inc), delidding station, plate hotels, barcode reader (Beckman Coulter), liquid handler (Biomek 2000, Beckman Coulter) and a multipurpose reader (FLUOstar Optima, BMG Labtech GmbH, Offenburg, Germany) for automated FMCA. Quality criteria for a successful assay included a mean coefficient of variation of less than 30% in the control and a fluorescence signal in control wells of more than 5 times the blank.
Dose-response data were analyzed using calculated survival index values and the software program GraphPadPrism4 (GraphPad Software Inc., San Diego, Calif., USA). Data was processed using non-linear regression to a standard sigmoidal dose-response model to obtain IC50-values (inhibitory concentration 50%).
In FIG. 2a the response rates for VLX50 at 4 μM for the patient samples are listed according to diagnoses. […] Lung cancer, AML and CML had intermediate response rates. The relative effect of VLX50 and six standard cytotoxic drugs, in solid and hematological tumor samples, expressed as the S/H ratio, is shown in FIG. 2b. […] The results for the standard drugs are consistent with their main clinical use.

[2] = test system: AML (Acute Myelocytic Leukemia) patient tumor cells; assay: FMCA, patient tumor samples, AML; assay type: cell-based; conditions: Homo sapiens
Excerpt: as §1
as §2, with “The sampling of primary tumor cells was approved by the local ethics committee at Uppsala University Hospital.” left out, “All samples used in this study contained more than 70% tumor cells.” left out
(§3) Fluorometric Microculture Cytotoxicity Assay. The Fluorometric Microculture Cytotoxicity Assay, FMCA, described in detail previously (Lindhagen et al., 2008), is based on measurement of fluorescence generated from hydrolysis of fluorescein diacetate (FDA) to fluorescein by cells with intact plasma membranes. […] Quality criteria for a successful assay included a mean coefficient of variation of less than 30% in the control and a fluorescence signal in control wells of more than 5 times the blank. […]

[3] = test system: NHL (Non-Hodgkins Lymphoma) patient tumor cells; assay: FMCA, patient tumor samples, NHL; assay type: cell-based; conditions: Homo sapiens, range over n=13 samples
Excerpt: as §1
as §2, with “The sampling of primary tumor cells was approved by the local ethics committee at Uppsala University Hospital.” left out, “All samples used in this study contained more than 70% tumor cells.” left out
as §3

[4] = test system: CLL (Chronic Lymphocytic Leukemia) patient tumor cells; assay: FMCA, patient tumor samples, CLL; assay type: cell-based; conditions: Homo sapiens, range over n=9 samples
Excerpt: as §1
as §2, with “The sampling of primary tumor cells was approved by the local ethics committee at Uppsala University Hospital.” left out, “All samples used in this study contained more than 70% tumor cells.” left out
as §3

[5] = test system: BNIP and Ndrg-1 expression; assay: Gene expression analysis of drug treated tumor cell cultures; assay type: cell-based; conditions: HIF1 alfa dependent genes
Experimental: Mechanism of action. Mechanistic exploration was performed using gene expression analysis of drug treated tumor cell cultures to generate a drug specific signature. The breast cancer cell line MCF-7 was treated with VLX50 or vehicle (DMSO) and analyzed for gene expression using the Affymetrix U1300plus chip. […] This query signature was subsequently submitted to the GSEA and the Connectivity map databases and strong connections to hypoxia inducible factor (HIF1 alfa) and iron chelators were retrieved. […] The mechanism was confirmed by direct measurements of drug induced decrease in intracellular iron concentration (FIG. 6b).

[6] = test system: Lung cancer patient tumor cells; assay: FMCA, patient tumor samples, lung cancer; assay type: cell-based; conditions: Homo sapiens
Excerpt: as §1
as §2, with “The sampling of primary tumor cells was approved by the local ethics committee at Uppsala University Hospital.” left out, “All samples used in this study contained more than 70% tumor cells.” left out
as §3

[7] = test system: ALL (Acute Lymphocytic Leukemia) patient tumor cells; assay: Fluorometric Microculture Cytotoxicity Assay (FMCA), patient tumor samples, ALL; assay type: cell-based; conditions: Homo sapiens, range over n=21 samples
Excerpt: as §1
as §2, with “The sampling of primary tumor cells was approved by the local ethics committee at Uppsala University Hospital.” left out, “All samples used in this study contained more than 70% tumor cells.” left out
as §3

ROS formation = assay: ROS formation; conditions: in contrast to triapine
[8] = test system: solid and hematological patient tumor samples; assay: Relative effect on solid and hematological tumor samples (S/H ratio), FMCA; assay type: cell-based, human; conditions: n=98 patient samples; FIG. 2b
Excerpt: as §1
as §2, with “The sampling of primary tumor cells was approved by the local ethics committee at Uppsala University Hospital.” left out, “All samples used in this study contained more than 70% tumor cells.” left out
as §3

[9] = test system: intracellular free iron in MCF-7 cells; assay: Measurement of intracellular iron (Phen Green); assay type: cell-based; conditions: MCF-7, Phen Green fluorescent probe, 100 μM or 500 μM
Excerpt: Measurement of intracellular iron. The fluorescent membrane permeable Fe sensor, Phen Green (Invitrogen AB, Göteborg, Sweden) was used to measure changes in intracellular free iron concentration. Fluorescence of the PhenGreen indicators is quenched upon binding Fe^2+ and Fe^3+. The emission intensity of the PhenGreen FL indicator depends on both the metal ion's concentration and the indicator's concentration. MCF-7 cells were harvested and diluted to 500,000 per mL in complete medium, loaded with 10 μM PhenGreen diacetate for 45 minutes and plated to flat-bottomed 96W microtiter plates. The plates were washed ×2 with PBS, resuspended in 180 μl PBS per well and subsequently analyzed by a plate reading fluorometer Fluostar Optima which is programmed to scan fluorescence once a minute for 20 minutes with a break after 5 minutes, during which 20 μl PBS, or VLX50 (100 μM or 500 μM) was added.
Mechanism of action. Mechanistic exploration was performed using gene expression analysis of drug treated tumor cell cultures to generate a drug specific signature. The breast cancer cell line MCF-7 was treated with VLX50 or vehicle (DMSO) and analyzed for gene expression using the Affymetrix U1300plus chip. […] This query signature was subsequently submitted to the GSEA and the Connectivity map databases and strong connections to hypoxia inducible factor (HIF1 alfa) and iron chelators were retrieved. […]

[10] = test system: normal peripheral blood mononuclear cells (PBMC); assay: FMCA, normal peripheral blood mononuclear cells; assay type: cell-based; conditions: Homo sapiens
Excerpt: as §1
as §2, with “The sampling of primary tumor cells was approved by the local ethics committee at Uppsala University Hospital.” left out, “All samples used in this study contained more than 70% tumor cells.” left out
as §3

With `COCCCNC(=S)N/N=C\c1ccccn1` [VLX50, N1-(3-methoxypropyl)-2-(pyridylmethylidene)-hydrazine-1-carbothioamide] as the compound, how does the “PBMC/CLL median IC50 ratio” value [1] read?
The value was 7.6.

And the IC50 ([2]; n=10, 72 h FMCA, read-out: Median IC50)?
Its IC50 is 5.35 µM.

What about the IC50 ([2]; range over n=10 samples, read-out: IC50 Range) of the same compound?
The IC50 was 0.67 to 40 µM.

What about the IC50 [3] of the same compound?
Its IC50 is 0.28 to 40 µM.

What about the IC50 [4] of the same compound?
The IC50 was 0.035 to 9.4 µM.

And the “Expression of BNIP and Ndrg-1” value [5]?
Its value is “significantly increasing”.

And the IC50 ([6]; n=6, 72 h FMCA, read-out: Median IC50)?
The IC50 was 13.6 µM.

What about the IC50 ([6]; range over n=6 samples, read-out: IC50 Range) of the same compound?
The IC50 was 0.51 to 40 µM.

And the IC50 [7]?
The IC50 was 0.055 to 11.2 µM.

And the ROS formation (ROS formation)?
Its ROS formation is “does not appear to induce ROS formation”.

And the “S/H ratio (ratio between total response rates for solid and hematological samples)” value [8]?
Its value is 0.73.

What about the Intracellular iron concentration [9] of the same compound?
The Intracellular iron concentration was “decrease”.

What about the IC50 ([10]; n=4, 72 h FMCA, read-out: Median IC50) of the same compound?
The IC50 was 8.92 µM.

And the IC50 ([10]; range over n=4 samples, read-out: IC50 Range)?
The IC50 was 2.88 to 13.3 µM.
